In patent US7893067B2, “Cysteine protease inhibitors” (Medivir AB, priority 2007, dated 2011) one finds half-life, Ki and Papp data, which are given here for two compounds.

Bounds are passed on as bounds.

As usually defined, the half-life is the time in which the quantity being followed falls by half. In general, Ki refers to a measure of affinity in units of concentration, obtained from inhibition or displacement. The Papp is the rate of passage across a membrane or cell layer, normalised by area and donor concentration. Lower therefore signals poor permeation.

A short description of series [1]: Metabolic stability in human hepatic cytosol assay. Type of series: in vitro ADME. The conditions noted are these: 2 μM in pooled human liver cytosol, 1 mg/mL protein, pH 7.4, 37°, 1 mM NADPH. On the procedure:
Compounds of the invention and the indicated comparative examples were tested for metabolic stability in a cytosol assay in which the compounds were incubated with commercially available human hepatic cytosol fractions and the disappearance of the compound monitored by HPLC or LC/MS. Pooled human liver cytosol fractions are less likely to represent outlier individuals than blood from a single individual and can be stored frozen, unlike whole blood. The cytosol assay thus provides a consistent assay testbed as a guide to the stability of a compound in the in vivo environment, such as when exposed to whole blood.
In short, test compounds (2 μM) are incubated in pooled human liver cytosol (Xenotech LLC Lenexa US, 1 mg/mL protein in 0.1M phosphate buffer, pH 7.4) at 37° centigrade over a one hour period. The incubations are initiated by the addition of 1 mM NADPH co-factor. Timed sub-samples were taken at 0, 20, 40 and 60 minutes and “crash precipitated” by the addition of 3 volumes of ice-cold acetonitrile. The samples were centrifuged at reduced temperature and the supernatants were separated and analyzed by LC-MS-MS.

The target in series [2] is T1, baculovirus-expressed human cathepsin S (Homo sapiens, UniProt P25774).
T1 construct: made in house
Briefly: Cathepsin S Ki determination. Type of series: biochemical. On the procedure:
280 μl/well of 12.5% DMSO are added to rows B-H of two columns of a 96 deep well polypropylene plate. 70 μl/well of substrate is added to row A. 2×250 μl/well of assay buffer (100 mM Na phosphate, 100 mM NaCl, pH 6.5) is added to row A, mixed, and double diluted down the plate to row H. 100 μl/well of assay buffer is added to columns 2-5 and 7-12 of 4 rows of a 96 well V bottom polypropylene plate. 200 μl/well of assay buffer is added to columns 1 and 6. […] Add 90 μl assay buffer containing 1 mM DTT and 2 nM cathepsin S to each well of rows B-H and 180 μl to row A. Mix row A using a multichannel pipette and double dilute to row G. Mix row H and read in the fluorescent spectrophotometer. […] The second test compound is added to column 6 of the top row, the third to column 1 of the second row etc. Add 1 μl of comparator to column 6 of the bottom row. Mix column 1 and double dilute to column 5. Mix column 6 and double dilute to column 10. Using an 8-channel multistepping pipette set to 5×10 μl, distribute 10 μl/well of substrate to the 384 well assay plate. Distribute the first column of the substrate dilution plate to all columns of the assay plate starting at row A. The tip spacing of the multichannel pipette will correctly skip alternate rows. Distribute the second column to all columns starting at row B. Using a 12-channel multistepping pipette set to 4×10 μl, distribute 10 μl/well of inhibitor to the 384 well assay plate. Distribute the first row of the inhibitor dilution plate to alternate rows of the assay plate starting at A1. The tip spacing of the multichannel pipette will correctly skip alternate columns. Similarly, distribute the second, third and fourth rows to alternate rows and columns starting at A2, B1 and B2 respectively. Mix 20 ml assay buffer and 20 μl 1M DTT. Add sufficient cathepsin S to give 2 nM final concentration. Using the a distributor such as a Multidrop 384, add 30 μl/well to all wells of the assay plate and read in fluorescent spectrophotomoter such as an Ascent. Fluorescent readings, (excitation and emission wavelengths 390 nm and 460 nm respectively, set using bandpass filters) reflecting the extent of enzyme cleavage of the fluorescent substrate, notwithstanding the inhibitor, are linear rate fitted for each well. Fitted rates for all wells for each inhibitor are fitted to the competitive inhibition equation using SigmaPlot 2000 to determine V, Km and Ki values. Potential inhibitors are screened using the above assay with variable concentrations of test compound. Reactions were initiated by addition of enzyme to buffered solutions of substrate and inhibitor. Ki values were calculated according to equation 1 [formula] where v0 is the velocity of the reaction, V is the maximal velocity, S is the concentration of substrate with Michaelis constant of KM, and/is the concentration of inhibitor.

Series [3] addresses T2, human recombinant cathepsin K (Homo sapiens, UniProt P43235).
T2 construct: made in house; host or cells: not fixed: E coli, Pichia or Baculovirus systems named as options
T2 sequence (P43235 115-329): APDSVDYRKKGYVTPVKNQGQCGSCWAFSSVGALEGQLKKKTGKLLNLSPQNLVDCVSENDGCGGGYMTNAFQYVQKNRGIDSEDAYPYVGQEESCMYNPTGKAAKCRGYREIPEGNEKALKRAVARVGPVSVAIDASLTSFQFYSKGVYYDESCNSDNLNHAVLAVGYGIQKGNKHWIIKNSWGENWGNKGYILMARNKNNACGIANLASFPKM
Briefly: Determination of cathepsin K proteolytic catalytic activity (Ki). Type of series: biochemical. On the procedure:
Convenient assays for cathepsin K are carried out using human recombinant enzyme, such as that described in PDB.
The recombinant cathepsin K can be expressed in a variety of commercially available expression systems including E coli, Pichia and Baculovirus systems. The purified enzyme is activated by removal of the prosequence by conventional methods.
Standard assay conditions for the determination of kinetic constants used a fluorogenic peptide substrate, typically H-D-Ala-Leu-Lys-AMC, and were determined in either 100 mM Mes/Tris, pH 7.0 containing 1 mM EDTA and 10 mM 2-mercaptoethanol or 100 mM Na phosphate, imM EDTA, 0.1% PEG4000 pH 6.5 or 100 mM Na acetate, pH 5.5 containing 5 mM EDTA and 20 mM cysteine, in each case optionally with […] as stabiliser. The enzyme concentration used was 5 nM. The stock substrate solution was prepared at 10 mM in DMSO. Screens were carried out at a fixed substrate concentration of 60 μM and detailed kinetic studies with doubling dilutions of substrate from 250 μM. The total DMSO concentration in the assay was kept below 3%. All assays were conducted at ambient temperature. Product fluorescence (excitation at 390 nm, emission at 460 nm) was monitored with a Labsystems Fluoroskan Ascent fluorescent plate reader. Product progress curves were generated over 15 minutes following generation of AMC product.
(§1) Potential inhibitors are screened using the above assay with variable concentrations of test compound. Reactions were initiated by addition of enzyme to buffered solutions of substrate and inhibitor. Ki values were calculated according to equation 1
(§2) [formula] where v0 is the velocity of the reaction, V is the maximal velocity, S is the concentration of substrate with Michaelis constant of KM, and/is the concentration of inhibitor.

Series [4] is described as follows: Caco-2 permeability (Papp). Format: in vitro ADME. The conditions noted are these: human; Caco-2 assay, standard concentration 10 μM. On the procedure:
The transport plate comprises 3 rows of 4 wells.
Determination of the cumulative fraction absorbed, FAcum, versus time. FAcum is calculated from: […]
A linear relationship should be obtained.
For orientation: Caco-2 monolayers are a common model of the intestinal barrier.

The target of a further series is human cathepsin L (Homo sapiens, UniProt P07711). The series is described as follows: Cathepsin L Ki. Format: biochemical. The procedure:
The procedure above with the following amendments is used for the determination of Ki for cathepsin L.
The enzyme is commercially available human cathepsin L (for example Calbiochem). The substrate is H-D-Val-Leu-Lys-AMC available from Bahcem. The assay buffer is 100 mM sodium acetate 1 mM EDTA, pH5.5) The DMSO stock (10 mM in 100% DMSO) is diluted to 10% in assay buffer. Enzyme is prepared at 5 nM concentration in assay buffer plus 1 mM dithiothreitol just before use. 2 ul of 10 mM inhibitor made up in 100% DMSO is dispensed into row A. 10 ul of 50 uM substrate (=1/200 dilution of 10 mM stock in DMSO, diluted in assay buffer)
as §1, §2

The mark [5] stands for this setting: representative values from specific batches of compound/enzyme/assay occasion.

T1 sequence (P25774 115-331): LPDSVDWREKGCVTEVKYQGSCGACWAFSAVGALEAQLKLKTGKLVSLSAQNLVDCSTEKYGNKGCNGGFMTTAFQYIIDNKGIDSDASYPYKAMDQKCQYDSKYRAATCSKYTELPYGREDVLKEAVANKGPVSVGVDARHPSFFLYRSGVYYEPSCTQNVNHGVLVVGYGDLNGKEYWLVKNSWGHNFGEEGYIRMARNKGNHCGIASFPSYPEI
Sequence of human cathepsin L (P07711 114-333): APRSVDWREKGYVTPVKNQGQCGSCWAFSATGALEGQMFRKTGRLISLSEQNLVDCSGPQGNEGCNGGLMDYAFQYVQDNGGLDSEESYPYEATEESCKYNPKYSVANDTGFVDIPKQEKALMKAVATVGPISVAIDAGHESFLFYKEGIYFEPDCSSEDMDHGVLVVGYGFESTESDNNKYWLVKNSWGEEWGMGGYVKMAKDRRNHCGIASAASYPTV

As for `CC(C)C[C@H](NC(=O)c1ccc(-c2nc(N3CCN(C)CC3)sc2F)cc1)C(=O)N1C[C@@H](Cl)[C@H]2OCC(=O)[C@H]21` [Example 12, N-[1-(6-Chloro-3-oxo-hexahydro-furo[3,2-b]pyrrole-4-carbonyl)-3-methyl-butyl]-4-[5-fluoro-2-(4-methyl-piperazin-1-yl)-thiazol-4-yl]-benzamide], the half-life at 2 μM in series [1] came out at 4.5 h. For the same compound, the Ki in series [2] (Table 1, class symbols) is > 10 µM; in series [2] (setting [5]) it was 11 µM; in series [3] (Table 1, class symbols) it was < 0.05 µM; in series [3] (setting [5]), 0.0018 µM; at human cathepsin L (Table 1, class symbols), 1 to 5 µM; on human cathepsin L (setting [5]), 1.6 µM. The same compound returned an apparent permeability coefficient (Papp) at 120 min, 10 μM in series [4] of 10 ×10⁻⁶ cm/s.
Consider `CC(C)C[C@H](NC(=O)c1ccc(-c2csc(N3CCN(C)CC3)n2)c(F)c1)C(=O)N1C[C@@H](Cl)[C@H]2OCC(=O)[C@H]21` [Example 10, N—[(S)-1-((3aS,6R,6aS)-6-Chloro-3-oxo-hexahydro-furo[3,2-b]pyrrole-4-carbonyl)-3-methyl-butyl]-3-fluoro-4-[2-(4-methyl-piperazin-1-yl)-thiazol-4-yl]-benzamide], for which the Ki in series [2] (Table 1, class symbols) was 1 to 5 µM; in series [2] (setting [5]), 4.7 µM; in series [3] (Table 1, class symbols), < 0.05 µM; in series [3] (setting [5]) it was 0.0034 µM; at human cathepsin L (Table 1, class symbols) it was 0.05 to 0.5 µM; at human cathepsin L (setting [5]), 0.49 µM. The same compound had a Papp at 120 min, 10 μM in series [4] of 5.2 ×10⁻⁶ cm/s.
